Where a name gives a salt, the structure may show the parent alone.
What was measured:
[1] = molecular target: T1, α-1A adrenoreceptor (canine prostate smooth muscle) (Canis lupus, UniProt A0A8I3NK63); assay: Functional antagonism: inhibition of phenylephrine-induced contraction of canine prostate strips; assay type: cell-based; conditions: Schild plot
T1 construct: antagonism of phenylephrine-induced contraction (pA2, Schild)
T1 sequence (A0A8I3NK63 1-466): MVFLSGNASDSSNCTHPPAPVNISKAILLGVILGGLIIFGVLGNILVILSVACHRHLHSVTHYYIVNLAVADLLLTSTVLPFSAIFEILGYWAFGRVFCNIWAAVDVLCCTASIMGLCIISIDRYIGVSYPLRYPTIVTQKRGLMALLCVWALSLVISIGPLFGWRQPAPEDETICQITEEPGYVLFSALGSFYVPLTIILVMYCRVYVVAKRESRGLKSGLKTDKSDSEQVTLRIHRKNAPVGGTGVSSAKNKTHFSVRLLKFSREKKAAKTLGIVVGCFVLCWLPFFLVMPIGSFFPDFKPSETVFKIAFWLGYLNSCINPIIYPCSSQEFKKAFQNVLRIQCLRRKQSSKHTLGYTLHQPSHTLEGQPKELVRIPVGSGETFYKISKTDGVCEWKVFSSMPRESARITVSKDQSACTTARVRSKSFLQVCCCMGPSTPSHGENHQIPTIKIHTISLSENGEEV
Source text: Canine prostate strips were used in vitro as previously described (Hieble, J. P., Boyce, Caine, M., Fed Proc., 45: 2609-2614 (1986)), to determine antagonist potencies phenylephrine-induced contractions.
Functional assays indicative of pharmacologically defined α-1 adrenoreceptors were used to further characterize compounds. Inhibition of phenylephrine (PE)-induced contraction of canine prostate smooth muscle can be correlated with α-1A adrenoreceptor activation. […] For each of these models, agonist dose response curves were repeated against increasing concentrations of test agent to derive a Schild plot [log ([…]) against log (molarity of test agent)] to determine the pA2.
Canine prostate strips were used in vitro as previously described (Hieble, J. P., Boyce, A. J. and Caine, M., Fed. Proc., 45: 2609-2614 (1986)), to determine antagonist potencies against phenylephrine-induced contractions.

[2] = molecular target: T2, α-1 Adrenoceptors (Rat Aorta) (Rattus norvegicus, UniProt P23944); assay: Functional antagonism at α-1 adrenoceptors, rat aorta; assay type: cell-based
T2 construct: Rat Aorta; from tissue; host or cells: rat aorta
T2 sequence (P23944 1-561): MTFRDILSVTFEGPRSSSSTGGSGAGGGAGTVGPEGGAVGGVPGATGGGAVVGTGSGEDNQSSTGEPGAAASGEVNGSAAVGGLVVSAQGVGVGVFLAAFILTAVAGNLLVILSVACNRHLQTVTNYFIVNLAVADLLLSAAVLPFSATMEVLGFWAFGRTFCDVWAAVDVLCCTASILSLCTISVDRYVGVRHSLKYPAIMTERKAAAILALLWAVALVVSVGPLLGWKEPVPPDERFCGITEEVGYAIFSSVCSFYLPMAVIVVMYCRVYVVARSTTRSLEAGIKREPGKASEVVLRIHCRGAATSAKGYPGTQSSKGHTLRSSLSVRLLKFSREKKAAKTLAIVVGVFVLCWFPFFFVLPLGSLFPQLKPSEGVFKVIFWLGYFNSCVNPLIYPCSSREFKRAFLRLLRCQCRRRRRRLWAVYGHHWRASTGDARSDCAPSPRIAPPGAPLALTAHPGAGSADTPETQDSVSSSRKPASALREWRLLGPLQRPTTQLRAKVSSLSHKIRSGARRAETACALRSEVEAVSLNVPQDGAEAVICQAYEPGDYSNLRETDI
Procedure, shortened: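 Phenylephrine dose-response curves for contraction were repeated against increasing test-agent concentrations. pA2 was derived by Schild plot [[…] vs log molarity of test agent].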

| SMILES | In Vitro Characterization (pA2) Dog Prostate [1] | In Vitro Characterization (pA2) Rat Aorta [2] |
| --- | --- | --- |
| COc1cccc2c1[C@@H]1CCN(CCCCn3c(=O)[nH]c4c(sc5cccnc54)c3=O)C[C@H]1CO2 (relative stereo) [Example 88, 3-[4-((±)-trans-10-Methoxy-1,3,4,4a,5,10b-hexahydro-2H-[1]-benzopyrano[3,4-c]pyrido-3-yl)butyl]-pyrido[2',3':4,5]thieno[3,2-d]pyrimidine-2,4(1H,3H)-dione hydrochloride] | 8.09 | – |
| COc1ccc2c(n1)sc1c(=O)n(CCCCN3C[C@@H]4COc5cccc(OC)c5[C@@H]4C3)c(=O)[nH]c12 [Example 33, hydrochloride] | – | 9.15 |
